Assay results published in patent US20190233884A1 (University of Southern California, priority 2016, published 2019).

System: patients with refractory metastatic colorectal cancer (mCRC)
Test: PFS, OS and disease control in the testing (validation) cohort of refractory mCRC patients receiving TAS-102 (n=129, Italy), by baseline characteristics, SNP genotype and toxicity
Assay type: in vivo, human
Conditions: for HR OS (95% CI) / HR PFS (95% CI): ATM rs609429 Any G vs C/C (Ref.)
Procedure: All patients underwent the treatment in salvage-line setting. […]
(§1) Genomic DNA was extracted from peripheral whole blood in patients of all cohorts using the QIAmp Kit (Qiagen, Valencia, Calif., USA) according to the manufacturer's protocol (www.qiagen.com). The candidate SNPs were genotyped using PCR-based direct DNA sequence analysis by ABI 3100A Capillary Genetic Analyzer and Sequencing Scanner v1.0 (Applied Biosystems). Amplification of extracted DNA was carried out using both forward and reverse primers for each gene polymorphism as shown in Table 1. […] The investigators analyzing SNPs were blinded to the clinical data of the study patients.
The primary endpoint in this study was progression-free survival (PFS), and the secondary endpoints were overall survival (OS) and disease control rate (DCR). PFS was calculated from the date of starting treatment to the first observation of disease progression or death from any cause. If a patient had no disease progression or death, PFS was censored at the date of last follow up. OS was calculated from the date of starting treatment until the date of death from any cause or the date of the last follow-up, at which point OS was censored. The disease control rate (DCR) was defined as the proportion of patients who achieved a stable disease (SD) or […] according to RECISTv1.1. Chi-square test was used to examine the difference in baseline patient characteristics among the three cohorts. Allelic distribution of all SNPs by ethnicity for deviation from Hardy-Weinberg equilibrium and the allelic frequencies of SNPs were tested using the Chi-square tests with one degree of freedom. The associations between candidate SNPs and disease control, and toxicities were examined using contingency tables and Fisher's exact test. The associations of SNPs with PFS and OS were analysed using Kaplan-Meier curves and the log-rank test. Because the true mode of inheritance of candidate SNPs was not established yet, a codominant or dominant genetic model if appropriate was considered.
All patients underwent the treatment in salvage-line setting. […] In all patients, adverse events were graded according to the Common Terminology Criteria for Adverse Events, version 4.0. […]
as §1, with “tested” for “genotyped”, “Biosystems).” for “Biosystems). Amplification of extracted DNA was carried out using both forward and reverse primers for each gene polymorphism as shown in Table 1.”, “data.” for “data of the study patients.”
The primary endpoint in this study was progression-free survival (PFS), and the secondary endpoints were overall survival (OS) and disease control rate (DCR).

[1] = testing cohort, hENT1 rs750370 A/A
[2] = testing cohort, hENT1 rs750370 A/G
[3] = testing cohort, hENT1 rs750370 A/G vs A/A
[4] = testing cohort, hENT1 rs750370 Any G
[5] = testing cohort, hENT1 rs750370 Any G vs A/A
[6] = testing cohort, hENT1 rs750370 G/G
[7] = testing cohort, hENT1 rs750370 G/G vs A/A
[8] = testing cohort, hENT1 rs760370, multivariable adjusted for age group, liver metastasis, ECOG, previous anti-EGFR
[9] = testing cohort, hENT1 rs760370 A/A
[10] = testing cohort, hENT1 rs760370 any G allele
[11] = testing cohort, hENT1 rs760370 any G vs A/A, univariate
[12] = testing cohort, hENT1 rs9394992 Any T
[13] = testing cohort, hENT1 rs9394992 Any T vs C/C
[14] = testing cohort, hENT1 rs9394992 C/C
[15] = testing cohort, hENT1 rs9394992 C/T
[16] = testing cohort, hENT1 rs9394992 C/T vs C/C
[17] = testing cohort, hENT1 rs9394992 T/T
[18] = testing cohort, hENT1 rs9394992 T/T vs C/C
[19] = testing cohort, hENT1370_OCT019 Excellent
[20] = testing cohort, hENT1370_OCT019 Fair
[21] = testing cohort, hENT1370_OCT019 Fair vs Poor
[22] = testing cohort, hENT1370_OCT019 Good
[23] = testing cohort, hENT1370_OCT019 Good and Excellent combined
[24] = testing cohort, hENT1370_OCT019 Good and Excellent combined vs Poor
[25] = testing cohort, hENT1370_OCT019 Poor
[26] = testing/validation cohort, grade 3≤ neutropenia
[27] = testing/validation cohort, grade 3≤ neutropenia vs less than grade 3
[28] = testing/validation cohort, neutropenia less than grade 3
[29] = validation cohort, ATM rs609429 Any G
[30] = validation cohort, multivariable
[31] = validation cohort, ATM rs609429 C/C

Substance: Trifluridine/tipiracil [TAS-102]
- Disease Control Rate SD [1]: 9 (20%)
- Overall Survival Median, months (95% CI) [1]: 3.9 (3.3, 5.5) months
- Progression-free Survival Median, months (95% CI) [1]: 1.9 (1.7, 2.0) months
- Disease Control Rate PD [2]: 42 (66%)
- Disease Control Rate SD [2]: 22 (34%)
- Progression-free Survival Median, months (95% CI) [2]: 2.1 (1.9, 2.5) months
- Overall Survival HR (95% CI) multivariate [3]: 0.50 (0.28, 0.89)
- Overall Survival HR (95% CI) univariate [3]: 0.48 (0.27, 0.85)
- Progression-free Survival HR (95% CI) multivariate [3]: 0.58 (0.37, 0.89)
- Progression-free Survival HR (95% CI) univariate [3]: 0.59 (0.38, 0.90)
- Disease Control Rate PD [4]: 55 (66%)
- Disease Control Rate SD [4]: 28 (34%)
- Overall Survival Median, months (95% CI) [4]: 9.0 (5.1, 9.0+) months
- Progression-free Survival Median, months (95% CI) [4]: 2.1 (1.9, 2.4) months
- Overall Survival HR (95% CI) multivariate [5]: 0.54 (0.31, 0.93)
- Overall Survival HR (95% CI) univariate [5]: 0.50 (0.29, 0.86)
- Progression-free Survival HR (95% CI) multivariate [5]: 0.65 (0.43, 0.98)
- Progression-free Survival HR (95% CI) univariate [5]: 0.64 (0.43, 0.95)
- Disease Control Rate PD [6]: 13 (68%)
- Disease Control Rate SD [6]: 6 (32%)
- Overall Survival Median, months (95% CI) [6]: 9.0 (2.9, 9.0+) months
- Progression-free Survival Median, months (95% CI) [6]: 2.0 (1.6, 2.5) months
- Overall Survival HR (95% CI) multivariate [7]: 0.78 (0.31, 1.99)
- Overall Survival HR (95% CI) univariate [7]: 0.58 (0.24, 1.41)
- Progression-free Survival HR (95% CI) multivariate [7]: 1.00 (0.55, 1.80)
- Progression-free Survival HR (95% CI) univariate [7]: 0.86 (0.48, 1.55)
- HR for OS [8]: 0.54
- HR for PFS [8]: 0.65
- OS [9]: 3.9 months
- PFS [9]: 1.9 months
- OS [10]: 9.0 months
- PFS [10]: 2.1 months
- HR for OS [11]: 0.50
- HR for PFS [11]: 0.64
- Disease Control Rate PD [12]: 50 (71%)
- Disease Control Rate SD [12]: 20 (29%)
- Overall Survival Median, months (95% CI) [12]: 5.2 (3.7, 9.0+) months
- Progression-free Survival Median, months (95% CI) [12]: 2.0 (1.9, 2.4) months
- Overall Survival HR (95% CI) multivariate [13]: 1.19 (0.69, 2.07)
- Overall Survival HR (95% CI) univariate [13]: 1.31 (0.76, 2.27)
- Progression-free Survival HR (95% CI) multivariate [13]: 0.81 (0.54, 1.19)
- Progression-free Survival HR (95% CI) univariate [13]: 0.92 (0.62, 1.35)
- Disease Control Rate PD [14]: 41 (71%)
- Disease Control Rate SD [14]: 17 (29%)
- Overall Survival Median, months (95% CI) [14]: 5.8 (4.7, 8.8+) months
- Progression-free Survival Median, months (95% CI) [14]: 2.0 (1.9, 2.1) months
- Disease Control Rate PD [15]: 41 (71%)
- Disease Control Rate SD [15]: 17 (29%)
- Overall Survival Median, months (95% CI) [15]: 4.4 (3.6, 9.0+) months
- Progression-free Survival Median, months (95% CI) [15]: 2.0 (1.8, 2.3) months
- Overall Survival HR (95% CI) multivariate [16]: 1.23 (0.69, 2.18)
- Overall Survival HR (95% CI) univariate [16]: 1.38 (0.78, 2.43)
- Progression-free Survival HR (95% CI) multivariate [16]: 0.81 (0.54, 1.22)
- Progression-free Survival HR (95% CI) univariate [16]: 0.92 (0.61, 1.38)
- Disease Control Rate PD [17]: 9 (75%)
- Disease Control Rate SD [17]: 3 (25%)
- Progression-free Survival Median, months (95% CI) [17]: 2.5 (0.4, 3.9) months
- Overall Survival HR (95% CI) multivariate [18]: 1.02 (0.38, 2.71)
- Overall Survival HR (95% CI) univariate [18]: 1.06 (0.40, 2.79)
- Progression-free Survival HR (95% CI) multivariate [18]: 0.79 (0.39, 1.58)
- Progression-free Survival HR (95% CI) univariate [18]: 0.90 (0.45, 1.78)
- Disease Control Rate PD [19]: 38 (64%)
- Disease Control Rate SD [19]: 21 (36%)
- Disease Control Rate PD [20]: 25 (81%)
- Disease Control Rate SD [20]: 6 (19%)
- Overall Survival Median, months (95% CI) [20]: 4.0 (3.1, 8.8) months
- Progression-free Survival Median, months (95% CI) [20]: 1.9 (1.6, 2.0) months
- Overall Survival HR (95% CI) multivariate [21]: 0.58 (0.25, 1.37)
- Overall Survival HR (95% CI) univariate [21]: 0.77 (0.34, 1.75)
- Progression-free Survival HR (95% CI) multivariate [21]: 1.13 (0.57, 2.24)
- Progression-free Survival HR (95% CI) univariate [21]: 1.24 (0.64, 2.40)
- Disease Control Rate PD [22]: 17 (71%)
- Disease Control Rate SD [22]: 7 (29%)
- Overall Survival Median, months (95% CI) [23]: 9.0 (5.1, 9.0) months
- Progression-free Survival Median, months (95% CI) [23]: 2.1 (1.9, 2.4) months
- Overall Survival HR (95% CI) multivariate [24]: 0.37 (0.17, 0.80)
- Overall Survival HR (95% CI) univariate [24]: 0.42 (0.20, 0.90)
- Progression-free Survival HR (95% CI) multivariate [24]: 0.71 (0.38, 1.30)
- Progression-free Survival HR (95% CI) univariate [24]: 0.73 (0.40, 1.34)
- Disease Control Rate PD [25]: 11 (79%)
- Disease Control Rate SD [25]: 3 (21%)
- Overall Survival Median, months (95% CI) [25]: 3.6 (2.3, 8.5) months
- Progression-free Survival Median, months (95% CI) [25]: 2.0 (1.7, 2.4) months
- Progression-free Survival Median, months (95% CI) (testing cohort, per OCT2 rs316000 genotype (row), OCT2 rs316000 A/A genotype): 2.0 (1.9, 2.1) months
- Progression-free Survival Median, months (95% CI) (testing cohort, per OCT2 rs316000 genotype (row), OCT2 rs316000 A/G genotype): 1.9 (1.7, 2.4) months
- Progression-free Survival Median, months (95% CI) (testing cohort, per OCT2 rs316000 genotype (row), OCT2 rs316000 Any G genotype): 1.9 (1.8, 2.6) months
- Progression-free Survival Median, months (95% CI) (testing cohort, per OCT2 rs316000 genotype (row), OCT2 rs316000 G/G genotype): 3.7 (1.7, 6.8+) months
- OS [26]: 8.8 months
- PFS [26]: 2.3 months
- HR for OS [27]: 0.21
- HR for PFS [27]: 0.50
- OS [28]: 3.7 months
- PFS [28]: 1.9 months
- Disease Control CR/PR/SD, patients n (%) [29]: 26 (33%)
- Median PFS (95% CI) [29]: 2.0 (1.9, 2.3) months
- PD, patients n (%) [29]: 52 (67%)
- HR OS (95% CI) [30]: 0.80 (0.45, 1.41)
- HR PFS (95% CI) [30]: 0.85 (0.56, 1.29)
- HR OS (95% CI) (validation cohort, univariate): 0.73 (0.43, 1.25)
- HR PFS (95% CI) (validation cohort, univariate): 0.78 (0.52, 1.16)
- Disease Control CR/PR/SD, patients n (%) [31]: 11 (22%)
- Median OS (95% CI) [31]: 4.4 (3.7, 9.0+) months
- Median PFS (95% CI) [31]: 1.9 (1.8, 2.3) months
- OS [31]: 4.4 months
- PD, patients n (%) [31]: 39 (78%)
- PFS [31]: 1.9 months
